Source: US20240315993A1, “ANTIPARASITIC COMPOUNDS” (Intervet Inc., priority 2021, published 2024)

What was measured:
[1] = test system: Rhipicephalus microplus tick larvae; assay: Tick larvae contact assay; conditions: read-out: Tick inhibition (% of damage+dead ticks)
Protocol: Tick larvae (Rhipicephalus microplus) were immersed for approximately 3 minutes in declining concentrations of a test compound (dissolved in a DMSO-emulsifier-deionized water mixture). Tick inhibition (% of damage+dead ticks per test concentration) was assessed approximately 24 hours after contact exposure. The vitality of used parasites was confirmed in negative control groups (i.e. an untreated control and a solvent control).

[2] = test system: Adult fleas (Ctenocephalides felis); assay: Flea contact assay; conditions: 48 h, read-out: flea inhibition (% of dead+damaged fleas)
Protocol: (§1) Adult fleas (Ctenocephalides felis) were exposed to filter paper impregnated with declining concentrations of a test compound (dissolved in a DMSO-emulsifier-deionized water mixture). After approximately 48 hours of continuous contact exposure, flea inhibition (% of dead+damaged fleas per test concentration) was assessed. The vitality of used parasites was confirmed in negative control groups (i.e., an untreated control and a solvent control).

[3] = test system: Adult fleas (Ctenocephalides felis); assay: Flea feeding assay; conditions: 48 h, read-out: flea inhibition (% of dead+damaged fleas)
Protocol: as §1, with “felis) of defined age” for “felis)”, “fed on artificial membranes with blood spiked” for “exposed to filter paper impregnated”, “DMSO-emulsifier-blood” for “DMSO-emulsifier-deionized water”, “feeding,” for “contact exposure,”, “(i.e., %” for “(%”

[4] = test system: larvae of Rhipicephalus microplus isolates with known resistance profiles; assay: Tick larvae resistance assay (larval immersion test, LIT)
Protocol: A tick resistance assay (i.e., larval immersion test, LIT) was carried out using larvae of several Rhipicephalus microplus isolates with known resistance profiles (i.e.: fully susceptible; resistant to dieldrin, coumaphos, DDT, chlorpyriphos, flumethrin, cypermethrin, amitraz, fluazuron).
Tick larvae (Rhipicephalus microplus) were immersed for approximately 3 minutes in test compound solution. Tick mortality was assessed approximately 24 hours after contact exposure. The vitality of used parasites was confirmed in negative control groups (i.e., an untreated control and a solvent control).

[5] = test system: juvenile soft ticks (Ornithodoros moubata); assay: Guinea pig - efficacy against argaside tick; format: in vivo
In short: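 Guinea pigs given 5 mg/kg test compound orally (gavage) or s.c. in 10% DMF/emulsifier plus 90% water for injection, with local co-infestations of Ornithodoros moubata juveniles and Cimex lectularius at several post-treatment times. Engorged parasites scored dead/damaged about 24 h after collection; % inhibition versus pretreatment baseline by modified Schneider-Orelli formula.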

[6] = test system: Mobile stages of sea lice (pre-adults, adults of Caligus rogercresseyi); assay: Adult Caligus rogercresseyi sea lice contact assay
Protocol: Mobile stages of sea lice (i.e., pre-adults, adults of Caligus rogercresseyi) were exposed to seawater spiked with declining concentrations of a test compound (dissolved in a PEG sea-water mixture). Sea lice inhibition (% of dead+damaged sea lice) was assessed after approximately 1, 24 and 48 hours of continuous exposure in comparison to a negative (solvent) and untreated control group.

[7] = test system: mobile sea lice stages of Lepeophtheirus salmonis-isolates with known resistance profiles; assay: Sea lice resistance assay
Protocol: A sea lice resistance assay was carried out using mobile sea lice stages (i.e., pre-adults, adults) of several Lepeophtheirus salmonis-isolates with known resistance profiles (i.e.: fully susceptible, resistant to azametiphos (OP), emamectin benzoate (ML), deltamethrin (SP). Sea lice were exposed to seawater spiked with declining concentrations of a test compound (dissolved in a PEG300/sea-water mixture). Sea lice inhibition (% of dead+damaged sea lice) was assessed after approximately 1, 24 and 48 hour/s of continuous exposure in comparison to a negative (solvent) control group.

[8] = test system: Lepeophtheirus salmonis; assay: Salmon - in vivo efficacy against sea lice using gavage administration; conditions: 5 mg/kg once by gavage, counted around day 28
In short: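 Salmon given a single oral gavage of 5 mg/kg in 5% DMSO/95% fish oil on day 0, with vehicle controls. L. salmonis copepodid infestations around days −28, −3 and 17; lice counted by stage around day 28, efficacy as % reduction versus control by Abbott's formula.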

[9] = test system: Lepeophtheirus salmonis; assay: Salmon - in vivo efficacy against sea lice using in-feed administration; conditions: for prophylactic efficacy against re-infestation: 1 mg/kg in feed for 7 days
Protocol: Commercial fish feed pellets were coated with formulated test compound. As formulation DMSO 5%/fish oil 95% was used. Salmon (Salmo solar) were treated orally with 1 mg/kg fish biomass via coated feed for 7 consecutive days. Salmon of the negative control groups received only feed coated with the excipients of the formulation.
Fish of the therapeutic groups were infested with Lepeophtheirus salmonis copepodids twice before treatment (around day −28 and day −3).
Fish of the prophylactic groups were infested at several time points after treatment in 2-week intervals. The fish were assessed for (pre-)adult sea lice approximately 3 weeks after each re-infestation. At each assessment, all (pre-)adult sea lice were removed from the fish. […] Efficacy is expressed as a % reduction of sea lice in treated groups versus a control group using the Abbott's formula.

[10] = 5 mg/kg subcutaneous, after 7 days
[11] = 5 mg/kg subcutaneous, after 10 days
[12] = 1 mg/kg fish biomass via coated feed for 7 consecutive days

## O=C(Nc1ccc(F)cc1F)c1cc(NC(=O)[C@H]2[C@H](c3ccc(F)c(Cl)c3)C2(Cl)Cl)ccc1Cl [Compound 197]
[1]
  inhibition at 25 µM: ≥ 80%
  inhibition at 49 µM: 80%
  inhibition at 388 µM: 80%
  inhibition at 100 ppm: 80%
[2]
  inhibition at 1000 ppm: 80%
[3]
  inhibition at 1 ppm: 80%
[4]; isolate resistant to Coumaphos, Flumethrin, Cypermethrin
  LC50: 0.343 ppm
[4]; isolate resistant to Coumaphos, Flumethrin, Cypermethrin, Amitraz
  LC50: 0.375 ppm
[4]; isolate resistant to DDT, Dieldrin, Coumaphos
  LC50: 0.346 ppm
[4]; isolate resistant to DDT, Dieldrin, Coumaphos, Chlorpyriphos
  LC50: 0.335 ppm
[4]; isolate resistant to Dieldrin, Coumaphos, Fluazuron
  LC50: 0.270 ppm
[4]; isolate: Fully susceptible
  LC50: 0.288 ppm
[5]; 5 mg/kg oral, Day 0
  activity against tick nymphs (≥80% inhibition, killed+damaged): immediate activity
[5]; 5 mg/kg oral, after 7 days
  activity against tick nymphs (≥80% inhibition, killed+damaged): activity
[5]; 5 mg/kg subcutaneous, Day 0
  activity against tick nymphs (≥80% inhibition, killed+damaged): immediate activity
[5]; [10]
  activity against tick nymphs (≥80% inhibition, killed+damaged): activity
[5]; [11]
  activity against tick nymphs (≥80% inhibition, killed+damaged): activity
[5]; 5 mg/kg, ticks and bed bugs
  duration of efficacy, subcutaneous compared with oral administration: longer duration of efficacy

## O=C(Nc1ncc(F)cc1F)c1cc(NC(=O)[C@H]2[C@H](c3cc(Cl)cc(Cl)c3)C2(Cl)Cl)ccc1Cl [Compound 453]
[6]; after 24 hours
  EC50: 0.072 ppb
[6]; after 48 hours
  EC50: 0.035 ppb
[7]
  effectiveness against sensitive isolate and multi-resistant isolate: equally effective
[7]; multi-resistant isolate, after 24 hours
  EC50: 1.96 ppb
[7]; multi-resistant isolate, after 48 hours
  EC50: 0.64 ppb
[7]; sensitive isolate, after 24 hours
  EC50: 1.20 ppb
[7]; sensitive isolate, after 48 hours
  EC50: 0.29 ppb
[5]; 5 mg/kg oral, Day 0
  activity against tick nymphs (≥80% inhibition, killed+damaged): immediate activity
[5]; 5 mg/kg oral, after 7 days
  activity against tick nymphs (≥80% inhibition, killed+damaged): activity
[5]; 5 mg/kg oral, after 10 days
  activity against tick nymphs (≥80% inhibition, killed+damaged): activity
[5]; 5 mg/kg subcutaneous, Day 0
  activity against tick nymphs (≥80% inhibition, killed+damaged): immediate activity
[5]; [10]
  activity against tick nymphs (≥80% inhibition, killed+damaged): activity
[5]; [11]
  activity against tick nymphs (≥80% inhibition, killed+damaged): activity
[5]; 5 mg/kg, at least until Day 10, both administration routes (oral, subcutaneous)
  effective to control ticks: 100%
[8]
  prophylactic efficacy at re-infestation on Day 17 (% reduction vs control): 100%
[9]; [12]
  therapeutic efficacy against (pre-)adult sea lice: 100%
  therapeutic efficacy against juvenile sea lice: 100%
[9]; re-infestation D14
  prophylactic efficacy against re-infestation: 100%
[9]; re-infestation D28
  prophylactic efficacy against re-infestation: 99.9%
[9]; re-infestation D42
  prophylactic efficacy against re-infestation: 86.0%
